Source: ChEMBL document CHEMBL4814014, “Identification of novel androgen receptor degrading agents to treat advanced prostate cancer” (Eur J Med Chem, 2021)

What was measured:
[1] = test system: DU-145; experiment: Antiproliferative activity against AR-negative human DU145 cells assessed as reduction in cell viability incubated for 3 days by MTT assay; conditions: DU-145, 72 h
[2] = test system: CWR22R; experiment: Antiproliferative activity against AR-positive human 22RV1 cells assessed as reduction in cell viability incubated for 3 days by MTT assay; conditions: 22Rv1, 72 h
[3] = test system: LNCaP; experiment: Antiproliferative activity against AR-positive human LNCaP cells assessed as reduction in cell viability incubated for 3 days by MTT assay; conditions: 72 h

Compound | IC50 [1] [µM] | IC50 [2] [µM] | IC50 [3] [µM]
C=CC(=O)Nc1ccc(-c2cc(=O)c3c(O)cc(OC)c(OC(C)C)c3o2)cc1 | 14.7 | 5.8 | 15.1
CNC(=O)c1ccc(N2C(=S)N(c3ccc(C#N)c(C(F)(F)F)c3)C(=O)C2(C)C)cc1F [ENZALUTAMIDE] | 45.3 | 42.3 | 17.6
